From patent publication US20250195513A1, “DEGRADATION OF IRAK4 BY CONJUGATION OF IRAK4 INHIBITORS WITH E3 LIGASE LIGAND AND METHODS OF USE” (BeiGene, Ltd., priority 2022, published 2025)
Read-outs that look alike come from different tables or passages of the source.

Target: T1, IRAK4 (Homo sapiens, UniProt Q9NWZ3)
T1 construct: endogenous in cells; host or cells: Karpas299
T1 sequence (Q9NWZ3 1-460): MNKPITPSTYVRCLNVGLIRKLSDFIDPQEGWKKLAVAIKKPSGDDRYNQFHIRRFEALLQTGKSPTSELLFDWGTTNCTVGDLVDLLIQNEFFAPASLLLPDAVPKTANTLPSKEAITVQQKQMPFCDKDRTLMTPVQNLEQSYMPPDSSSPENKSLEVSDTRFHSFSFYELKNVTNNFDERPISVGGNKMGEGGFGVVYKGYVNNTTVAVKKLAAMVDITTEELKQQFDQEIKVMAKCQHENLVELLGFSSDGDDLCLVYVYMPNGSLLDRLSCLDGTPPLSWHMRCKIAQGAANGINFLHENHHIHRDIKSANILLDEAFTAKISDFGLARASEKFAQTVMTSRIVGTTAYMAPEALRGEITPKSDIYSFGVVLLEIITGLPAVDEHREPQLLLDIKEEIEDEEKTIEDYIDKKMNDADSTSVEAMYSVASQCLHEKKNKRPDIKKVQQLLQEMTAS
Assay: IRAK4 Degradation Assay (Karpas299, HTRF/TR-FRET)
Assay type: cell-based
Method: IRAK4 degradation was measured using a TR-FRET-based method (Degorce, François, et al. Current chemical genomics. 2009, 3: 22). Karpas299 maintained in RPMI 1640 medium (Thermo Scientific) supplemented with 20% fetal bovine serum (FBS, Thermo Scientific), 100 units/mL penicillin and 0.1 mg/mL streptomycin (Thermo Scientific) were seeded into 96-well plates at the density of 0.2 million cells per well and then treated with a series dilution of compounds. After 24 hours or 5 hours treatment, cells were pelleted via centrifugation and 40 μL lysis buffer (Cisbio) was added to each well after removal of the supernatant. Plates were then incubated at room temperature with shaking for 30 minutes. A total of 16 μL of cell lysates from each well of a 96-well plate was transferred to a 384-well white assay plate. IRAK4 level was quantitated using the HTRF kit as described by the manufacturer manual (Cisbio). FRET signals were measured using a PHERAstar FSX reader (BMG Labtech).
After treatment, add HTRF lysis buffer to each well; seal the plate and incubate 1 hour at room temperature on a plate shaker; Once the cells are lysed, 16 μL of cell lysate are transferred to a PE 384-well HTRF detection plate; 4 μL of pre-mixed HTRF antibodies are added to each well; Cover the plate with a plate sealer, spin 1000 rpm for 1 min, Incubate overnight at room temperature; Read on BMG PheraStar with HTRF protocol (337 nm-665 nm-620 nm).
The inhibition (degradation) percentage of the compound was calculated by the following equation: […]
The IC50 (DC50) value of a compound can be obtained by fitting the following equation
Wherein, X and Y are known values, and IC50, Hillslope, Top and Bottom are the parameters obtained by fitting with software. Y is the inhibition percentage (calculated from the equation), X is the concentration of the compound; IC50 is the concentration of the compound when the […] is reached. The smaller the IC50 value is, the stronger the inhibitory ability of the compound is. Vice versa, the higher the IC50 value is, the weaker the ability the inhibitory ability of the compound is; Hillslope represents the slope of the fitted curve, generally around 1 *; Bottom represents the minimum value of the curve obtained by data fitting, which is generally 0%±20%; Top represents the maximum value of the curve obtained by data fitting, which is generally 100%±20%. The experimental data were fitted by calculating and analyzing with Dotmatics data analysis software.

[1] = Karpas-299 cells, 5 h treatment, maximum percentage of degradation, read-out: IRAK4 in Karpas-299 (5 h) Dmax (%)
[2] = Karpas-299 cells, 5 h treatment, read-out: IRAK4 in Karpas-299 (5 h) DC50
[3] = Karpas-299 cells, 24 h treatment, maximum percentage of degradation, read-out: IRAK4 in Karpas-299 (24 h) Dmax (%)
[4] = Karpas-299 cells, 24 h treatment, read-out: IRAK4 in Karpas-299 (24 h) DC50

Row | Structure (SMILES) | Dmax [1] | DC50 [2] | Dmax [3] | DC50 [4] | DC50 (Degradation (Karpas-299), comparison table, Linker Type A, read-out: Compound (Linker Type A) DC50) | Dmax (Degradation (Karpas-299), comparison table, Linker Type A, read-out: Compound (Linker Type A) Dmax (%))
1 | CC1(C)CN(c2cc(F)c([C@H]3CCC(=O)NC3=O)c(F)c2)C[C@@H]1C(=O)N1CCN([C@H]2CC[C@H](n3cc(NC(=O)c4coc(-c5ccnc(NCC(F)(F)F)c5)n4)c(C(F)F)n3)CC2)CC1 [Example 18, N-(3-(difluoromethyl)-1-((1R,4r)-4-(4-((R)-1-(4-((R)-2,6-dioxopiperidin-3-yl)-3,5-difluorophenyl)-4,4-dimethylpyrrolidine-3-carbonyl)piperazin-1-yl)cyclohexyl)-1H-pyrazol-4-yl)-2-(2-((2,2,2-trifluoroethyl)amino)pyridin-4-yl)oxazole-4-carboxamide] | 95% | 100 nM | 97% | 9.7 nM |  | 
2 | CC(C)(O)c1cc2nn([C@H]3CC[C@H](N4CCN(C5CCN(c6cc(F)c([C@H]7CCC(=O)NC7=O)c(F)c6)CC5)CC4)CC3)cc2cc1NC(=O)c1cccc(C(F)(F)F)n1 [Example 99, N-(2-((1r,4r)-4-(4-(1-(4-((R)-2,6-dioxopiperidin-3-yl)-3,5-difluorophenyl)piperidin-4-yl)piperazin-1-yl)cyclohexyl)-6-(2-hydroxypropan-2-yl)-2H-indazol-5-yl)-6-(trifluoromethyl)picolinamide] |  |  | 99% | 0.4 nM |  | 
3 | CC(C)(O)c1cc2nn([C@H]3CC[C@H](N4CCN(C[C@H]5CCN(c6cc(F)c(N7CCC(=O)NC7=O)c(F)c6)C5)CC4)CC3)cc2cc1NC(=O)c1ccc2cc(C#N)cnn12 [Example 112, 3-cyano-N-(2-((1R,4r)-4-(4-(((R)-1-(4-(2,4-dioxotetrahydropyrimidin-1(2H)-yl)-3,5-difluorophenyl)pyrrolidin-3-yl)methyl)piperazin-1-yl)cyclohexyl)-6-(2-hydroxypropan-2-yl)-2H-indazol-5-yl)pyrrolo[1,2-b]pyridazine-7-carboxamide] |  |  | 96% | 8.6 nM |  | 
4 | O=C1CC[C@H](c2c(F)cc(CCN3CCN(C[C@H]4CC[C@H](n5cc(NC(=O)c6coc(-c7ccnc(NCC(F)(F)F)c7)n6)c(C(F)F)n5)CC4)CC3)cc2F)C(=O)N1 [Example 1, N-(3-(difluoromethyl)-1-((1R,4r)-4-((4-(4-((R)-2,6-dioxopiperidin-3-yl)-3,5-difluorophenethyl)piperazin-1-yl)methyl)cyclohexyl)-1H-pyrazol-4-yl)-2-(2-((2,2,2-trifluoroethyl)amino)pyridin-4-yl)oxazole-4-carboxamide] |  |  | 46% | > 10000 nM | > 10000 nM | 46%
5 | [2H]C([2H])([2H])Oc1cc2nn([C@H]3CC[C@H](N4CCN(C(=O)[C@@H]5CCN(c6cc(F)c([C@H]7CCC(=O)NC7=O)c(F)c6)C5)CC4)CC3)cc2cc1NC(=O)c1cccc(C(F)(F)F)n1 [Example 169, N-(2-((1R,4r)-4-(4-((R)-1-(4-((R)-2,6-dioxopiperidin-3-yl)-3,5-difluorophenyl)pyrrolidine-3-carbonyl)piperazin-1-yl)cyclohexyl)-6-(methoxy-d3)-2H-indazol-5-yl)-6-(trifluoromethyl)picolinamide] | 95% | 17 nM | 99% | 4.3 nM |  | 
6 | O=C1CC[C@H](c2c(F)cc(N3CC(C(=O)N4CCN([C@H]5CC[C@H](n6cc(NC(=O)c7coc(-c8ccnc(NCC9CC9)c8)n7)c(C(F)F)n6)CC5)CC4)C3)cc2F)C(=O)N1 [Example 25, 2-(2-((cyclopropylmethyl)amino)pyridin-4-yl)-N-(3-(difluoromethyl)-1-((1r,4r)-4-(4-(1-(4-((R)-2,6-dioxopiperidin-3-yl)-3,5-difluorophenyl)azetidine-3-carbonyl)piperazin-1-yl)cyclohexyl)-1H-pyrazol-4-yl)oxazole-4-carboxamide] |  |  | 99% | 2.5 nM |  | 
7 | CC(C)(O)c1cc2nn([C@H]3CC[C@H](CN4CCN(C5CN(c6cc(F)c([C@H]7CCC(=O)NC7=O)c(F)c6)C5)CC4)CC3)cc2cc1NC(=O)c1csc(-c2cn[nH]c2)n1 [Example 433, N-(2-((1r,4r)-4-((4-(1-(4-((R)-2,6-dioxopiperidin-3-yl)-3,5-difluorophenyl)azetidin-3-yl)piperazin-1-yl)methyl)cyclohexyl)-6-(2-hydroxypropan-2-yl)-2H-indazol-5-yl)-2-(1H-pyrazol-4-yl)thiazole-4-carboxamide] |  |  | 99% | 0.2 nM |  | 
8 | O=C1CC[C@H](c2c(F)cc(N3CC(C(=O)N4CCN(c5ccc(-n6cc(NC(=O)c7coc(-c8ccnc(NCC(F)(F)F)c8)n7)c(C(F)F)n6)cn5)CC4)C3)cc2F)C(=O)N1 [Example 29] | 76% | 162 nM | 96% | 6.9 nM |  | 
9 | COc1cc2nn(C3CCN(C4CN(C(=O)C5CN(c6cc(F)c([C@H]7CCC(=O)NC7=O)c(F)c6)C5)C4)CC3)cc2cc1NC(=O)c1cccc(C(F)(F)F)n1 [Example 41, (R)—N-(2-(1-(1-(1-(4-(2,6-dioxopiperidin-3-yl)-3,5-difluorophenyl)azetidine-3-carbonyl)azetidin-3-yl)piperidin-4-yl)-6-methoxy-2H-indazol-5-yl)-6-(trifluoromethyl)picolinamide] |  |  | 95% | 1.1 nM |  | 
10 | CC(C)(O)c1cc2nc(C3CCN(C4CN(C(=O)[C@@H]5CCN(c6cc(F)c([C@H]7CCC(=O)NC7=O)c(F)c6)C5)C4)CC3)cn2cc1NC(=O)c1cccc(C(F)(F)F)n1 [Example 50, N-(2-(1-(1-((R)-1-(4-((R)-2,6-dioxopiperidin-3-yl)-3,5-difluorophenyl)pyrrolidine-3-carbonyl)azetidin-3-yl)piperidin-4-yl)-7-(2-hydroxypropan-2-yl)imidazo[1,2-a]pyridin-6-yl)-6-(trifluoromethyl)picolinamide] | 78% | 2.2 nM | 94% | 1.5 nM |  | 
11 | CC(C)(O)c1cc2nn([C@H]3CC[C@H](CN4CCN(C(=O)C5CN(c6cc(F)c([C@H]7CCC(=O)NC7=O)c(F)c6)C5)CC4)CC3)cc2cc1NC(=O)c1csc(-c2cn[nH]c2)n1 [Example 434, N-(2-((1r,4r)-4-((4-(1-(4-((R)-2,6-dioxopiperidin-3-yl)-3,5-difluorophenyl)azetidine-3-carbonyl)piperazin-1-yl)methyl)cyclohexyl)-6-(2-hydroxypropan-2-yl)-2H-indazol-5-yl)-2-(1H-pyrazol-4-yl)thiazole-4-carboxamide] |  |  | 97% | 0.2 nM |  | 
12 | O=C1CC[C@H](c2c(F)cc(N3CC(C(=O)N4CCN([C@H]5CC[C@H](n6cc7cc(NC(=O)c8cccc(C(F)(F)F)n8)c(OC8COC8)nc7n6)CC5)CC4)C3)cc2F)C(=O)N1 [Example 98, N-(2-((1r,4r)-4-(4-(1-(4-((R)-2,6-dioxopiperidin-3-yl)-3,5-difluorophenyl)azetidine-3-carbonyl)piperazin-1-yl)cyclohexyl)-6-(oxetan-3-yloxy)-2H-pyrazolo[3,4-b]pyridin-5-yl)-6-(trifluoromethyl)picolinamide] |  |  | 99% | 0.6 nM |  | 
13 | CC(C)(O)c1cc2nn(C3CCN(C4CCN(C(=O)[C@@H]5CCN(c6cc(F)c([C@H]7CCC(=O)NC7=O)c(F)c6)C5)CC4)CC3)cc2cc1NC(=O)c1cccn(C2CC2)c1=O [Example 118, 1-cyclopropyl-N-(2-(1′-((R)-1-(4-((R)-2,6-dioxopiperidin-3-yl)-3,5-difluorophenyl)pyrrolidine-3-carbonyl)-[1,4′-bipiperidin]-4-yl)-6-(2-hydroxypropan-2-yl)-2H-indazol-5-yl)-2-oxo-1,2-dihydropyridine-3-carboxamide] |  |  | 85% | 2.8 nM |  | 
